62 molecules from a melting point compilation (Tetko et al.; mined from patent text by program, amines drawn as free bases though some values may be those of a salt) can be followed below.

Molecules are shown by their SMILES.

What is called melting point is the temperature of the solid-liquid transition. On to `CCCCOc1c(N(C)C(=O)OC(C)(C)C)n(CC(C)(C)C)c(=O)c2ccc(O)cc12`, for which the melting point is 196 to 197 °C.

With `N#CSCCNc1ccc(Cl)cc1[N+](=O)[O-]`, the melting point lay within 154 to 155 °C.

`CC(C)(C)OC(=O)N1CCN(c2ccc(C#N)c(F)c2)CC1` gave a melting point of 130 to 131 °C.

`COc1ccc(N2CCN(c3ccc(N)nc3-c3ccc(C)cc3)CC2)cc1` returned a melting point of 193 to 200 °C.

In the case of `NS(=O)(=O)c1ccc(-c2cnn(-c3ccc(F)c(F)c3)c(=O)c2-c2ccc(F)cc2)cc1`, the melting point lay within 177 to 181 °C.

Take `CC(C)(C)OC(=O)N1CCN2C(=O)OC(Cc3ccccc3)(Cc3ccccc3)C2C1` (configuration not stated): the melting point was 188 to 189 °C.

As for `CSc1nccc(-c2c(-c3ccc(F)cc3)nc3occn23)n1`, the melting point is 144 to 145 °C.

`COc1cc(Cc2cnc(NCCSCc3cc(CN(C)C)ccn3)[nH]c2=O)ccn1`: the melting point was in the range of 65 to 74 °C.

The molecule `CCCc1c(O)ccc2c1CCCC2=O` returned a melting point of 159 to 160 °C.

`CC(Cc1c[nH]c2ccccc12)(NC(=O)OCC1c2ccccc2-c2ccccc21)C(=O)NCCc1ccccc1` (configuration not stated) registered a melting point of 179 to 181 °C.

Take `O=c1[nH]c2cc(Cl)ccc2c(O)c1-c1cccc(F)c1`: the melting point was above 350 °C.

In the case of `O=C(Nc1ccc(N2CCN(C(=O)Nc3ccc(OCCO)cc3C(F)(F)F)CC2)cc1)Nc1cccc2c1OCC2`, the melting point fell in the range of 218 to 220 °C.

For the molecule `CNC(=O)[C@@H]1C[C@@H](OCC2CC2)CN1S(=O)(=O)c1ccc(Cl)c(COc2cccc3c(-n4ccnc4)cc(C)nc23)c1Cl`, the melting point came to 98 °C.

The molecule `Cc1ccn(-c2ccc(Cl)c(Cl)c2)n1` registered a melting point of 46 to 47 °C.

The molecule `NS(=O)(=O)c1cccc(-c2noc(-c3cnn4c(C(F)F)cc(-c5ccc(C(F)(F)F)cc5)nc34)n2)c1` showed a melting point of 267 °C.

The molecule `O=C(O)c1csnc1-c1ccc(C(F)(F)F)cc1` displayed a melting point of 195 to 196 °C.

In turn, `CN1C(=O)C(C)(C)Oc2ccc(C3=NNC(=O)CC3)cc21` showed a melting point of 169 to 171 °C.

The molecule `CC(C)c1ccc(N(Cc2cnn(CC(F)(F)F)c2)C(=O)C2CCCc3c(O)cccc32)cn1` (configuration not stated) registered a melting point of 128 °C.

Molecule `O=Cc1ccc(-c2c(-c3nn[nH]n3)[nH]c3ccccc23)cc1` had a melting point of 210 to 212 °C.

`COc1cc(OS(=O)(=O)C(F)(F)F)c(Cl)c(C)c1Cl` displayed a melting point of 74 °C.

`CC1=C2OCOC2CC(C)(C)C1=O` (configuration not stated) displayed a melting point of 55.5 to 57 °C.

As for `Cc1ccc(S(=O)(=O)N2[C@@H](CCc3nc(C4CC4)no3)CC[C@H]2c2ccc(F)cc2)cc1` (racemic), the melting point came out at 129 °C.

Turning to `CC(=O)Nc1ccc(-c2ccc(C(C)O)o2)cc1` (configuration not stated), the melting point is 175 to 177 °C.

In the case of `Cc1c(C)c(C2CC(=O)C=C(O)C2)c(Cl)c2c1CCO2` (configuration not stated), the melting point is 224 °C.

Consider `OC(CCn1cccn1)c1ccc(OCc2ccccc2)cc1` (configuration not stated), for which the melting point was 80 to 85 °C.

`Cc1c(C(F)(F)F)nc[nH]c1=O` returned a melting point of 175 to 176 °C.

For `O=C1N(Cc2ccccn2)c2cccc(Br)c2C12COc1cc3c(cc12)CCO3` (configuration not stated), the melting point is above 200 °C.

For the molecule `NC(=O)c1c(NC(=O)C2CC2)sc2c1CCCC2=O`, the melting point lay in the range of 203 to 205 °C.

`CC(=O)Nc1cccc(CNC(=O)c2[nH]c3ccc(Cl)cc3c2S(=O)(=O)c2ccccc2)c1` returned a melting point of 249 to 250 °C.

In turn, `CC(C)(O)C(=O)c1ccc(OCC(N)=O)cc1` displayed a melting point of 139 °C.

In turn, `CN(C)CCCCCCc1ccc(NC=NO)cc1` displayed a melting point of 96 to 97 °C.

As for `Cc1[nH]c(=O)n(-c2cc(C(=O)OC(C)C)c(Cl)cc2F)c(=O)c1C#N`, the melting point was 189 to 193 °C.

For `CCCCCc1c(C(C)C)cc(C(C)C)c(C(C)O)c1-c1ccc(F)cc1` (configuration not stated), the melting point was found to be 126 °C.

The molecule `COC(=O)N[C@H]1Cc2ccccc2C1=O` displayed a melting point of 157 to 159 °C.

`C=C(C)Sc1oc2cc(OCc3ccccc3)ccc2c(=O)c1-c1ccc(OC)cc1` displayed a melting point of 101 to 102 °C.

On to `Cn1c(=O)ccc2cc(COc3cc(F)cc(C4(SC(C)(C)C)CCOCC4)c3)ccc21`, for which the melting point was in the range of 54 to 56 °C.

`O=C(O)C1Cc2c(ncn2CCC2CCCCC2)CN1C(=O)C(c1ccccc1)c1ccccc1` (configuration not stated) came in with a melting point of 137 to 140 °C.

The molecule `CCOC(=O)COC1CCN(C(=O)[C@H](C)OCc2ccc(C(N)=NO)cc2)CC1` returned a melting point of 137 to 138 °C.

Molecule `CCCCc1nc2ccccn2c(=O)c1-c1ccc(NC2CCN(C(=O)OC(C)(C)C)C2)cc1` (configuration not stated) registered a melting point of 116 to 118 °C.

In the case of `CCOC(=O)c1ccc(C(OC(c2ccc(C(=O)OCC)cc2)c2ccc3c(c2)C(C)(C)CCC3(C)C)c2ccc3c(c2)C(C)(C)CCC3(C)C)cc1` (configuration not stated), the melting point was in the range of 109 to 111 °C.

As for `CS(=O)c1ccc(-c2nn(Cc3ccc(F)cc3F)c(=O)cc2-c2ccc(Cl)cc2)cc1` (configuration not stated), the melting point was 156 °C.

As for `CCCn1c(=O)c2[nH]c(/C=C/c3ccc(OCC)cc3)nc2n(CCC)c1=O`, the melting point was found to be 262 °C.

As to `C[Si](C)(C)N(SN=C(Cl)C#N)[Si](C)(C)C`, the melting point is 29 to 30 °C.

In turn, `O=C(CNC(=O)c1cc([N+](=O)[O-])c([N+](=O)[O-])cc1Cl)OCc1ccccc1` returned a melting point of 122 to 124 °C.

Molecule `CN1C(=O)C(c2cccc(-c3cncnc3)c2)(c2cscn2)N=C1N` (configuration not stated) showed a melting point of 234 to 237 °C.

Take `CCCCCCCCCCCCCCCCCc1cc(O)c(CC)c(=O)o1`: the melting point fell in the range of 101 to 102 °C.

For the molecule `O=S(=O)(c1ccccc1F)n1ccc2c(OCc3ccccc3)cccc21`, the melting point is 117 to 120 °C.

Regarding `CCCCCCCCCCCCCCCCOCC(CF)COC(c1ccccc1)(c1ccccc1)c1ccccc1` (configuration not stated), the melting point is 32 °C.

In the case of `O=C(Nc1ccc(-c2c[nH]c(=O)cn2)cc1)c1cccc([N+](=O)[O-])c1`, the melting point was above 250 °C.

Turning to `COc1ccccc1C(=O)c1ncccc1C`, the melting point is 98 to 100 °C.

Molecule `Cc1ccc(F)c(C2CC(=O)c3c(C)ccnc3C2)c1` (configuration not stated) displayed a melting point of 92 to 94 °C.

With `CCc1nc2c(N)nc3ccccc3c2n1CCOCCN`, the melting point fell in the range of 144 to 146 °C.

The molecule `CON(C)C(=O)C(O)CNC(=O)c1cc2cc(Cl)ccc2[nH]1` (racemic) registered a melting point of 192 °C.

The molecule `Cc1oncc1C(=O)N1CCC(O)CC1` returned a melting point of 70.5 to 72.5 °C.

Consider `CS(=O)(=O)c1cccc(-c2cc(N3CCOCC3)cc(Nc3ccc(OC(F)(F)F)cc3)n2)c1`, for which the melting point was 233 to 235 °C.

In turn, `CC(=O)c1ccc(O)c(C(C)C)c1` yielded a melting point of 142 to 144 °C.

On to `O=C(O)COc1ccc(-c2nc3cnccc3[nH]2)c(O)c1`, for which the melting point stood at 235 °C.

In turn, `Cn1nc(-c2nc(-n3cccc3)c(N)nc2-c2ccccc2)ccc1=O` had a melting point of 202 to 205 °C.

`CC1(C)c2cccn2-c2cc(F)c(F)cc2N1S(=O)(=O)c1ccc(O)cc1`: the melting point was in the range of 202 to 204 °C.

Regarding `Cc1cc(C)c(Nc2nc(C)ncc2S(=O)(=O)c2ccc(-n3ccnc3)cc2)c(C)c1`, the melting point lay in the range of 230 to 232 °C.

The molecule `CC1(C)OCCN1C(=O)C=Cc1ccc(F)cc1` showed a melting point of 106 to 108 °C.

`Cc1ccc(Oc2ccc([N+](=O)[O-])cc2)c(O)c1`: the melting point was 95 to 97 °C.
